The NIST ThermoML archive (doi:10.1016/j.fluid.2004.11.006)
Numbers after ± are expanded uncertainties.

How the values were obtained:
[1] = Molar enthalpy of transition or fusion; settings: Crystal; DSC
[2] = Solid-liquid equilibrium temperature; settings: 101.3 kPa

SMILES | Molar enthalpy of transition or fusion [1] [kcal/mol] | Solid-liquid equilibrium temperature ([2]; Crystal) [K] | Solid-liquid equilibrium temperature ([2]; Crystal 1) [K]
CN1CCCC1=O [N-methylpyrrolidone] | 2.64 ± 0.0908 | 249.68 ± 0.4 | 
C1COCCOCCOCCOCCOCCO1 [1,4,7,10,13,16-hexaoxacyclooctadecane] |  |  | 311.76 ± 0.8
C1COCCO1 [1,4-dioxane] |  | 285.08 ± 0.4 | 
